Where “and” joins values, the source holds several entries; their conditions need not be identical. Equal values may be shown once. Records with an inconclusive call do not appear.
Tested on: CD8F1 mice, subcutaneous mammary adenocarcinoma, T/C%
Assay: NCI In Vivo Anticancer Drug Screen. Data for tumor model Mammary Adenocarcinoma CD8F1 (subcutaneous) in CD8F1
Details: higher = larger tumour
Method: The antitumor activity of compounds was measured in mice bearing transplantable tumors. Survival or tumor size were measured and the results are expressed as the measurement made in the treated group (T) divided by the measurement made in the vehicle treated control group (C). The tumor model used in this assay is Mammary Adenocarcinoma CD8F1 (subcutaneous) in CD8F1

[1] = endpoint: median tumor weight change, dose: 125.0 mg/kg/injection, schedule: Q01DX001 (ip), vehicle: saline with Tween-80
[2] = endpoint: median tumor weight change, dose: 500.0 mg/kg/injection, schedule: Q01DX001 (ip), vehicle: saline with Tween-80
[3] = endpoint: median tumor weight change, dose: 31.25 mg/kg/injection, schedule: Q01DX001 (ip), vehicle: saline with Tween-80
[4] = endpoint: median tumor weight change, dose: 250.0 mg/kg/injection, schedule: Q01DX001 (ip), vehicle: saline with Tween-80
[5] = endpoint: median tumor weight (est.), dose: 50.0 mg/kg/injection, schedule: Q07DX005 (ip), vehicle: saline
[6] = endpoint: median tumor weight (est.), dose: 12.5 mg/kg/injection, schedule: Q07DX005 (ip), vehicle: saline with Tween-80
[7] = endpoint: median tumor weight (est.), dose: 25.0 mg/kg/injection, schedule: Q07DX005 (ip), vehicle: saline with Tween-80
[8] = endpoint: median tumor weight (est.), dose: 50.0 mg/kg/injection, schedule: Q07DX005 (ip), vehicle: saline with Tween-80
[9] = endpoint: median tumor weight (est.), dose: 100.0 mg/kg/injection, schedule: Q07DX005 (ip), vehicle: saline with Tween-80
[10] = endpoint: median tumor weight (est.), dose: 6.25 mg/kg/injection, schedule: Q07DX005 (ip), vehicle: Klucel (hydroxypropylcellulose) (HPC)
[11] = endpoint: median tumor weight (est.), dose: 12.5 mg/kg/injection, schedule: Q07DX005 (ip), vehicle: Klucel (hydroxypropylcellulose) (HPC)
[12] = endpoint: median tumor weight (est.), dose: 25.0 mg/kg/injection, schedule: Q07DX005 (ip), vehicle: Klucel (hydroxypropylcellulose) (HPC)
[13] = endpoint: median tumor weight (est.), dose: 50.0 mg/kg/injection, schedule: Q07DX005 (ip), vehicle: Klucel (hydroxypropylcellulose) (HPC)
[14] = endpoint: median tumor weight (est.), dose: 100.0 mg/kg/injection, schedule: Q07DX005 (ip), vehicle: Klucel (hydroxypropylcellulose) (HPC)

SMILES: C[CH2][Ge]([CH2]C)[CH2]C.C[CH2][Ge]([CH2]C)[CH2]C.C[CH2][Ge]([CH2]C)[O][Ge]([CH2]C)[CH2]C
- T/C [1]: 81 % of control
- T/C [2]: 114 % of control

SMILES: Cc1cc2cc3cc(C)c(N)cc3nc2cc1N
- T/C [3]: 59 % of control
- T/C (endpoint: median tumor weight change, dose: 62.5 mg/kg/injection, schedule: Q01DX001 (ip), vehicle: saline with Tween-80): 72 % of control
- T/C [1]: 42 % of control
- T/C [4]: 36 % of control

SMILES: C=C1C(=O)OC2CC(C)C3C4OC4C(O)C3(C)C(O)C12 (configuration not stated)
- T/C (endpoint: median tumor weight change, dose: 62.5 mg/kg/injection, schedule: Q01DX001 (ip), vehicle: saline): 119 % of control
- T/C (endpoint: median tumor weight change, dose: 125.0 mg/kg/injection, schedule: Q01DX001 (ip), vehicle: saline): 80 % of control
- T/C (endpoint: median tumor weight change, dose: 250.0 mg/kg/injection, schedule: Q01DX001 (ip), vehicle: saline): 74 % of control
- T/C (endpoint: median tumor weight change, dose: 500.0 mg/kg/injection, schedule: Q01DX001 (ip), vehicle: saline): 88 % of control

SMILES: O=CC(O)C(O)C(O)C(O)C(=O)O.[NH-]C1CCCCC1[NH-].[Pt+2] (configuration not stated)
- T/C (endpoint: median tumor weight (est.), dose: 6.25 mg/kg/injection, schedule: Q07DX005 (ip), vehicle: suspension in saline): 48 % of control
- T/C (endpoint: median tumor weight (est.), dose: 12.5 mg/kg/injection, schedule: Q07DX005 (ip), vehicle: suspension in saline): 7 % of control and 32 % of control
- T/C (endpoint: median tumor weight (est.), dose: 25.0 mg/kg/injection, schedule: Q07DX005 (ip), vehicle: suspension in saline): 6 % of control

SMILES: Cc1cn(C2CC(O)C(CO)O2)c(=O)[nH]c1=O (configuration not stated)
- T/C (endpoint: median tumor weight (est.), dose: 25.0 mg/kg/injection, schedule: Q07DX005 (ip), vehicle: saline): 88 % of control
- T/C [5]: 107 % of control

SMILES: Cc1c(N)nc(C(CC(N)=O)NCC(N)C(N)=O)nc1C(=O)NC(C(=O)NC(C)C(O)C(C)C(=O)NC(C(=O)NCCc1nc(-c2nc(C(=O)NCCCNC(C)c3ccccc3)cs2)cs1)C(C)O)C(OC1OC(CO)C(O)C(O)C1OC1OC(CO)C(O)C(OC(N)=O)C1O)c1cnc[nH]1 (configuration not stated)
- T/C (endpoint: median tumor weight (est.), dose: 0.5 mg/kg/injection, schedule: Q07DX005 (ip), vehicle: water): 122 % of control
- T/C (endpoint: median tumor weight (est.), dose: 1.0 mg/kg/injection, schedule: Q07DX005 (ip), vehicle: water): 123 % of control
- T/C (endpoint: median tumor weight (est.), dose: 2.0 mg/kg/injection, schedule: Q07DX005 (ip), vehicle: water): 89 % of control
- T/C (endpoint: median tumor weight (est.), dose: 4.0 mg/kg/injection, schedule: Q07DX005 (ip), vehicle: water): 29 % of control
- T/C (endpoint: median tumor weight (est.), dose: 8.0 mg/kg/injection, schedule: Q07DX005 (ip), vehicle: water): 78 % of control
- T/C (endpoint: median tumor weight (est.), dose: 16.0 mg/kg/injection, schedule: Q07DX005 (ip), vehicle: water): 21 % of control

SMILES: COC(=O)C(F)C(Br)C(=O)OC (configuration not stated)
- T/C (endpoint: median tumor weight (est.), dose: 6.25 mg/kg/injection, schedule: Q07DX005 (ip), vehicle: saline with Tween-80): 61 % of control
- T/C [6]: 87 % of control
- T/C [7]: 106 % of control
- T/C [8]: 74 % of control
- T/C [9]: 77 % of control

SMILES: Nc1nc2n[nH]nc2c(=O)[nH]1
- T/C (endpoint: median tumor weight change, dose: 250.0 mg/kg/injection, schedule: Q01DX001 (ip), vehicle: suspension in saline): 73 % of control
- T/C (endpoint: median tumor weight change, dose: 500.0 mg/kg/injection, schedule: Q01DX001 (ip), vehicle: suspension in saline): 45 % of control

SMILES: BrC1CC(Br)c2c1c1c(c3c2C(Br)CC3Br)C(Br)CC1Br (configuration not stated)
- T/C [6]: 87 % of control
- T/C [7]: 210 % of control and 98 % of control
- T/C [9]: 86 % of control
- T/C (endpoint: median tumor weight (est.), dose: 200.0 mg/kg/injection, schedule: Q07DX005 (ip), vehicle: saline with Tween-80): 71 % of control and 75 % of control
- T/C (endpoint: median tumor weight (est.), dose: 400.0 mg/kg/injection, schedule: Q07DX005 (ip), vehicle: saline with Tween-80): 40 % of control
- T/C [4]: 85 % of control
- T/C [2]: 88 % of control
- T/C (endpoint: median tumor weight change, dose: 1000.0 mg/kg/injection, schedule: Q01DX001 (ip), vehicle: saline with Tween-80): 59 % of control
- T/C (endpoint: median tumor weight change, dose: 2000.0 mg/kg/injection, schedule: Q01DX001 (ip), vehicle: saline with Tween-80): 51 % of control

SMILES: CN(C)C=O
- T/C (endpoint: median tumor weight (est.), dose: 100.0 mg/kg/injection, schedule: Q07DX005 (ip), vehicle: saline): 78 % of control
- T/C (endpoint: median tumor weight (est.), dose: 400.0 mg/kg/injection, schedule: Q07DX005 (ip), vehicle: saline): 105 % of control
- T/C (endpoint: median tumor weight (est.), dose: 800.0 mg/kg/injection, schedule: Q07DX005 (ip), vehicle: saline): 96 % of control

SMILES: CCC(/C=C/C1OC(=O)C=CC1C)=C\C(C)C/C=C/C(C)=C/C(C)C(=O)C(C)C(O)C(C)C/C(C)=C/C(=O)O (configuration not stated)
- T/C (endpoint: median tumor weight change, dose: 200.0 mg/kg/injection, schedule: Q01DX001 (ip), vehicle: saline + alcohol): 56 % of control
- T/C (endpoint: median tumor weight change, dose: 400.0 mg/kg/injection, schedule: Q01DX001 (ip), vehicle: saline + alcohol): 49 % of control
- T/C (endpoint: median tumor weight change, dose: 800.0 mg/kg/injection, schedule: Q01DX001 (ip), vehicle: saline + alcohol): 56 % of control
- T/C (endpoint: median tumor weight change, dose: 1600.0 mg/kg/injection, schedule: Q01DX001 (ip), vehicle: saline + alcohol): 75 % of control
- T/C (endpoint: median tumor weight change, dose: 3200.0 mg/kg/injection, schedule: Q01DX001 (ip), vehicle: saline + alcohol): 61 % of control

SMILES: c1cnc2ncncc2n1
- T/C [6]: 84 % of control and 100 % of control
- T/C [7]: 93 % of control and 100 % of control
- T/C [8]: 69 % of control and 84 % of control
- T/C [9]: 92 % of control and 99 % of control

SMILES: COC1C(O)CC(OC2CC(Oc3cc4cc5c(c(O)c4c(O)c3C)C(=O)[C@@H](OC3CC(OC4CC(OC6CC(C)(O)C(OC(C)=O)C(C)O6)C(O)C(C)O4)C(O)C(C)O3)[C@H]([C@H](OC)C(=O)[C@@H](O)[C@@H](C)O)C5)OC(C)C2OC(C)=O)OC1C (some centres not stated)
- T/C (endpoint: median tumor weight (est.), dose: 0.04 mg/kg/injection, schedule: Q07DX005 (ip), vehicle: saline): 46 % of control
- T/C (endpoint: median tumor weight (est.), dose: 0.09 mg/kg/injection, schedule: Q07DX005 (ip), vehicle: saline): 93 % of control
- T/C (endpoint: median tumor weight (est.), dose: 0.36 mg/kg/injection, schedule: Q07DX005 (ip), vehicle: saline): 70 % of control
- T/C (endpoint: median tumor weight (est.), dose: 0.72 mg/kg/injection, schedule: Q07DX005 (ip), vehicle: saline): 76 % of control and 92 % of control
- T/C (endpoint: median tumor weight change, dose: 0.25 mg/kg/injection, schedule: Q01DX001 (ip), vehicle: saline): 63 % of control
- T/C (endpoint: median tumor weight change, dose: 0.5 mg/kg/injection, schedule: Q01DX001 (ip), vehicle: saline): 42 % of control
- T/C (endpoint: median tumor weight change, dose: 1.0 mg/kg/injection, schedule: Q01DX001 (ip), vehicle: saline): 44 % of control

SMILES: O=C1CN(CN2CCOCC2)C(=O)CN1CN1CCOCC1
- T/C (endpoint: median tumor weight (est.), dose: 12.5 mg/kg/injection, schedule: Q07DX005 (ip), vehicle: saline): 170 % of control
- T/C [5]: 153 % of control
- T/C (endpoint: median tumor weight (est.), dose: 200.0 mg/kg/injection, schedule: Q07DX005 (ip), vehicle: saline): 100 % of control

SMILES: c1ccc2c(NCCCCCCNc3c4ccccc4nc4ccccc34)c3ccccc3nc2c1
- T/C (endpoint: median tumor weight (est.), dose: 1.25 mg/kg/injection, schedule: Q07DX005 (ip), vehicle: Klucel (hydroxypropylcellulose) (HPC)): 97 % of control
- T/C (endpoint: median tumor weight (est.), dose: 2.5 mg/kg/injection, schedule: Q07DX005 (ip), vehicle: Klucel (hydroxypropylcellulose) (HPC)): 95 % of control
- T/C (endpoint: median tumor weight (est.), dose: 5.0 mg/kg/injection, schedule: Q07DX005 (ip), vehicle: Klucel (hydroxypropylcellulose) (HPC)): 58 % of control
- T/C (endpoint: median tumor weight (est.), dose: 20.0 mg/kg/injection, schedule: Q07DX005 (ip), vehicle: Klucel (hydroxypropylcellulose) (HPC)): 47 % of control

SMILES: CS(=O)(=O)OCCN(CCOS(C)(=O)=O)c1ccc(C=Nc2ccc(-c3csc(COc4ccccc4)n3)cc2)cc1
- T/C [10]: 88 % of control
- T/C [11]: 97 % of control and 103 % of control
- T/C [12]: 75 % of control and 79 % of control
- T/C [13]: 83 % of control
- T/C [14]: 27 % of control and 44 % of control

SMILES: CCCCc1ccc(-n2c(C)c(COC(=O)NC)c(COC(=O)NC)c2C)cc1
- T/C [10]: 118 % of control
- T/C [11]: 63 % of control
- T/C [12]: 111 % of control
- T/C [13]: 56 % of control
- T/C [14]: 40 % of control

SMILES: C=C1C(=O)C23[C@H](O)C1CC[C@H]2[C@]12COC3(O)[C@@H](O)[C@@H]1C(C)(C)CC[C@@H]2O
- T/C (endpoint: median tumor weight (est.), dose: 8.75 mg/kg/injection, schedule: Q07DX005 (ip), vehicle: Klucel (hydroxypropylcellulose) (HPC)): 104 % of control
- T/C (endpoint: median tumor weight (est.), dose: 17.5 mg/kg/injection, schedule: Q07DX005 (ip), vehicle: Klucel (hydroxypropylcellulose) (HPC)): 65 % of control
- T/C (endpoint: median tumor weight change, dose: 15.62 mg/kg/injection, schedule: Q01DX001 (ip), vehicle: saline with Tween-80): 54 % of control
- T/C [3]: 61 % of control
